Measured values as given in patent publication US12018157B2, “Tunable photoactivatable silicon rhodamine fluorophores” (SPIROCHROME AG, priority 2017, dated 2024).

Assays:
[1] = tested on: HaloTag in the nucleus of Hela cells; assay: Live-cell imaging, localisation in Hela cells expressing HaloTag in the nucleus; type: cell-based
Experimental: (§1) Mammalian expression vectors with a SNAP-tag-NLS or SNAP-tag-Halo-tag-NLS fusion construct were available in the Johnsson lab. H2B-Halo was constructed from a pEBTet plasmid and the commercially available pCLIPf-H2B plasmid (NEB).
(§2) HeLa or U2OS cells were cultured in high-glucose DMEM media with GlutaMAX-1 (Life Technologies) supplemented with 10% FBS (Life Technologies) in a humidified 5% CO2 incubator at 37° C. Cells were split every 3-4 days or at confluency.
(§3) Cells were seeded on glass bottom 35 mm dishes (Mattek) one day before imaging. Transient transfection of cells was performed using Lipofectamine™ 2000 reagent (Life Technologies) according to the manufacturer's recommendations: DNA (2.5 μg) was mixed with OptiMEM I (100 μL, Life Technologies) and Lipofectamine™ 2000 (6 μL) was mixed with OptiMEM I (100 μL). The solutions were incubated for 5 min at room temperature. They were mixed and incubated for 20 min at room temperature. Prepared DNA-Lipofectamine complex was added to a glass bottom 35 mm dish with cells at 50-70% confluency. After 6 h incubation in a humidified 5% CO2 incubator at 37° C. the medium was changed to a fresh high-glucose DMEM medium with GlutaMAX-1 supplemented with 10% FBS. The cells were incubated for 1-2 days before imaging. […]

HaloTag-H2B fusion = assay: Live-cell imaging, U2OS cells expressing HaloTag-H2B fusion; type: cell-based; conditions: 1 μM, 1 h (FIG. 3)
Experimental: FIG. 3 U2OS cells expressing HaloTag-H2B fusion stained with PA-SiR-Halo for 1 h (1 μM) and washed once for 3 min. Images were taken before and after irradiation with the 355 nm laser on a confocal microscope. Scale bar 30 μm.
as §1, §2
as §3, with “confluency.” for “confluency. After 6 h incubation in a humidified 5% CO2 incubator at 37° C. the medium was changed to a fresh high-glucose DMEM medium with GlutaMAX-1 supplemented with 10% FBS. The cells were incubated for 1-2 days before imaging.”

[2] = UV-Vis analysis / full absorbance spectra of PA-SiR 2a before and after UV irradiation; type: physicochemical; conditions: PBS
Experimental: PBS solutions of different pH were adjusted by addition of HCl or NaOH solution using a pH meter.
Solutions were prepared in PBS ([…] or 20 μM) at the indicated pH. UV irradiation was performed outside of the spectrometer for the indicated period (T). Absorbance spectra were recorded using a SHIMADZU UV spectrophotometer (UV-1800) and 1 cm fluorescence quartz cuvettes (Hellma Analytics). Spectra were recorded every minute.
Solutions of 2a in PBS (10 μM) at the desired pH were prepared in 1 cm fluorescence quartz cuvette (Hellma Analytics). UV irradiation was performed directly inside the spectrophotometer during the running experiment at a fixed distance (F, single flash). Kinetic absorbance measurements were recorded on a Perkin-Elmer Lambda 950 spectrophotometer at 646 nm.

Actin = assay: Live-cell imaging, localisation of PA-SiR-Actin to its target; type: cell-based
Experimental: as §2
(§4) Cells were stained with 1-3 μM PA-SiR (1-2 h, 37° C.), washed with phenol-red free DMEM medium (Life Technologies) or PBS (once for 3 min, 37° C.) and imaged in the same medium.
(§5) Imaging was performed using a Leica DMI6000B microscope equipped with a Hamamatsu-C9100 EM-CCD camera and a HCX PL APO 100.0×1.47 Oil objective and a standard Cy5 filter set was used. Activation of the fluorophores was achieved by irradiation with the DAPI-channel at 100% for 10-20 s. The same settings (exposure time=150 ms, gain=3, EM-gain=800, transmission=12.5%) were used for the images taken before and after UV irradiation in the SiR-channel.
(§6) Confocal imaging was performed on a Leica DMi8 microscope equipped with a Leica TCS SP8 X scanhead, a white light laser, a 355 nm laser (Coherent) and HC PL APO 63×1.47 Oil objective. The 355 nm laser was used to perform the photoactivation.

Tubulin = assay: Live-cell imaging, localisation of PA-SiR-Tubulin to its target; type: cell-based
Experimental: as §2, §4, §5, §6

[3] = tested on: SNAP-tag in the nucleus of Hela cells; assay: Live-cell imaging, localisation in Hela cells expressing SNAP-tag in the nucleus; type: cell-based
Experimental: as §1, §2, §3

DNA = assay: Live-cell imaging, localisation of PA-SiR-DNA to its target; type: cell-based
Experimental: as §2, §4, §5, §6

In the case of `CN(C)c1ccc2c(c1)[Si](C)(C)c1cc(N(C)C)ccc1C2=CCCC(=O)NCCOCCOCCCCCCCl` [PA-SiR-Halo, 4-(3,7-Bis(dimethylamino)-5,5-dimethyldibenzo[b,e]silin-10(5H)-ylidene)-N-(2-(2-((6-chlorohexyl)oxy)ethoxy)ethyl)butanamide], the “localisation to HaloTag in the nucleus” value [1] is reported as “successfully localised” and the “localisation to H2B” value (HaloTag-H2B fusion) is reported as “successfully localised”.

In the case of `CN(C)c1ccc2c(c1)[Si](C)(C)c1cc(N(C)C)ccc1C2=CCCC(=O)O` [2a, 4-(3,7-Bis(dimethylamino)-5,5-dimethyldibenzo[b,e]silin-10(5H)-ylidene)butanoicacid], the “absorbance (before photoactivation)” value [2] is reported as “only absorbance in the UV-range”.

With `C/C1=C\CC[C@H](C)OC(=O)C[C@H](c2ccc(O)cc2)NC(=O)[C@@H](Cc2cc3ccccc3[nH]2)N(C)C(=O)[C@H](CCCCNC(=O)CCC=C2c3ccc(N(C)C)cc3[Si](C)(C)c3cc(N(C)C)ccc32)NC(=O)[C@@H](C)C1` [PA-SiR-Actin, N-(4-((4R,7R,10S,13S,19S,E)-7-((1H-Indol-2-yl)methyl)-4-(4-hydroxyphenyl)-8,13,15,19-tetramethyl-2,6,9,12-tetraoxo-1-oxa-5,8,11-triazacyclononadec-15-en-10-yl)butyl)-4-(3,7-bis(dimethylamino)-5,5-dimethyldibenzo[b,e]silin-10(5H)-ylidene)butanamide] the “localisation to target (actin)” value (Actin) was “localised to their targets”.

In the case of `CC(=O)O[C@@]12CO[C@@H]1C[C@H](O)[C@@]1(C)C(=O)[C@H](O)C3=C(C)[C@@H](OC(=O)C(O)C(NC(=O)CCCCCCCNC(=O)CCC=C4c5ccc(N(C)C)cc5[Si](C)(C)c5cc(N(C)C)ccc54)c4ccccc4)C[C@@](O)([C@@H](OC(=O)c4ccccc4)[C@H]21)C3(C)C` (stereo partly drawn) [PA-SiR-Tubulin, (2αR,4S,4αS,6R,9S,11S,12S,12αR,12βS)-12β-Acetoxy-9-((3-(8-(4-(3,7-bis(dimethylamino)-5,5-dimethyldibenzo[b,e]silin-10(5H)-ylidene)butanamido)octanamido)-2-hydroxy-3-phenylpropanoyl)oxy)-4,6,11-trihydroxy-4α,8,13,13-tetramethyl-5-oxo-2α,3,4,4α,5,6,9,10,11,12,12α,12β-dodecahydro-1H-7,11-methanocyclodeca[3,4]benzo[1,2-β]oxet-12-yl benzoate], the “localisation to target (tubulin)” value (Tubulin) is reported as “localised to their targets”.

With `CN(C)c1ccc2c(c1)[Si](C)(C)c1cc(N(C)C)ccc1C2=CCCC(=O)NCc1ccc(COc2nc(N)nc3[nH]cnc23)cc1` [PA-SiR-SNAP, N-(4-(((2-Amino-9H-purin-6-yl)oxy)methyl)benzyl)-4-(3,7-bis(dimethylamino)-5,5-dimethyldibenzo[b,e]silin-10(5H)-ylidene)butanamide] the “localisation to SNAP-tag in the nucleus” value [3] was “successfully localised”.

In the case of `CN1CCN(c2ccc3nc(-c4ccc5nc(-c6ccc(OCCCCNC(=O)CCC=C7c8ccc(N(C)C)cc8[Si](C)(C)c8cc(N(C)C)ccc87)cc6)[nH]c5c4)[nH]c3c2)CC1` [PA-SiR-DNA, 4-(3,7-Bis(dimethylamino)-5,5-dimethyldibenzo[b,e]silin-10(5H)-ylidene)-N-(4-(4-(6-(4-methylpiperazin-1-yl)-1H,3′H-[2,5′-bibenzo[d]imidazol]-2′-yl)henoxy)butyl)butanamide], the “localisation to target (DNA)” value (DNA) is reported as “localised to their targets”.
